Assay results reported in the supplement of paper PMC10307832.

Legend:
Experiment in all cases: relative viability (nuclei count vs DMSO), 5 days (fraction); higher = more cells survive
[1] = compound: C#Cc1cccc(Nc2ncnc3cc(OCCOC)c(OCCOC)cc23)c1 [Erlotinib] + N=C(N)NC(=N)NCCc1ccccc1 [Phenformin] (partner 250 µM)
Method in brief: (§1)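 A single step with final 0.05% Triton X-100, 1% formaldehyde and 1 ug/ml Hoechst fixed the cells and stained nuclei 5 days after treatment. Lung cancer cell lines in 1536-well plates had been treated by pin tool the day after seeding with one drug alone or a fixed anchor-drug dose plus five library-drug doses (not always all listed) in √10 steps, and nuclei were counted on 4× images. Relative viability is the ratio of nuclei in treated wells to nuclei in vehicle wells, taken as the median of duplicate plates.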

[2] = compound: O=C(Nc1c[nH]nc1-c1nc2ccc(CN3CCOCC3)cc2[nH]1)NC1CC1 [AT9283] + CC1(C)CCC(c2ccc(Cl)cc2)=C(CN2CCN(c3ccc(C(=O)NS(=O)(=O)c4ccc(N[C@H](CCN5CCOCC5)CSc5ccccc5)c(S(=O)(=O)C(F)(F)F)c4)cc3)CC2)C1 [Navitoclax] (partner 0.5 µM)
Method in brief: as §1

[3] = compound: O=C(Nc1c[nH]nc1-c1nc2ccc(CN3CCOCC3)cc2[nH]1)NC1CC1 [AT9283] + C[C@@H](Oc1cc(-c2cnn(C3CCNCC3)c2)cnc1N)c1c(Cl)ccc(F)c1Cl [Crizotinib] (partner 1 µM)
Method in brief: as §1

[4] = compound: C#Cc1cccc(Nc2ncnc3cc(OCCOC)c(OCCOC)cc23)c1 [Erlotinib] + O=C(CCCCCCC(=O)Nc1ccccc1)NO [Vorinostat] (partner 1 µM)
Method in brief: as §1

[5] = compound: O=C(Nc1c[nH]nc1-c1nc2ccc(CN3CCOCC3)cc2[nH]1)NC1CC1 [AT9283] + N=C(N)NC(=N)NCCc1ccccc1 [Phenformin] (partner 250 µM)
Method in brief: as §1

| Cell Line | relative viability ([1]; first compound 0.02 µM) | relative viability ([1]; first compound 0.2 µM) | relative viability ([1]; first compound 0.6325 µM) | relative viability ([1]; first compound 2 µM) | relative viability ([2]; first compound 0.003 µM) | relative viability ([2]; first compound 0.03 µM) | relative viability ([2]; first compound 0.09487 µM) | relative viability ([2]; first compound 0.3 µM) | relative viability ([3]; first compound 0.003 µM) | relative viability ([3]; first compound 0.03 µM) | relative viability ([3]; first compound 0.09487 µM) | relative viability ([3]; first compound 0.3 µM) | relative viability ([4]; first compound 0.02 µM) | relative viability ([4]; first compound 0.2 µM) | relative viability ([4]; first compound 0.6325 µM) | relative viability ([4]; first compound 2 µM) | relative viability ([5]; first compound 0.003 µM) | relative viability ([5]; first compound 0.03 µM) | relative viability ([5]; first compound 0.09487 µM) | relative viability ([5]; first compound 0.3 µM) |
| --- | --- | --- | --- | --- | --- | --- | --- | --- | --- | --- | --- | --- | --- | --- | --- | --- | --- | --- | --- | --- |
| BEN | 0.276 | 0.248 | 0.273 | 0.269 | 0.0788 | 0.0854 | 0.0605 | 0.0596 | 0.818 | 0.663 | 0.207 | 0.236 | 0.66 | 0.523 | 0.637 | 0.547 | 0.259 | 0.253 | 0.256 | 0.176 |
| EPLC-272H | 0.353 | 0.254 | 0.321 | 0.212 | 0.984 | 1.05 | 1.1 | 0.138 | 0.951 | 0.856 | 0.431 | 0.14 | 0.459 | 0.411 | 0.396 | 0.292 | 0.33 | 0.309 | 0.148 | 0.141 |
| HCC-15 | 0.472 | 0.491 | 0.63 | 0.382 | 0.685 | 0.515 | 0.246 | 0.148 | 0.765 | 0.478 | 0.139 | 0.129 | 0.876 | – | 0.868 | 0.676 | 0.464 | 0.277 | 0.106 | 0.117 |
| NCI-H520 | 0.751 | 0.525 | 0.646 | 0.706 | 1.17 | 0.34 | 0.236 | 0.23 | 0.692 | 0.322 | 0.285 | 0.182 | 0.718 | 0.693 | 0.83 | 0.71 | 0.572 | 0.284 | 0.243 | 0.174 |
| EKVX | 0.245 | 0.205 | 0.127 | 0.137 | 0.697 | 0.861 | 0.435 | 0.264 | 0.878 | 0.663 | 0.371 | 0.216 | 0.716 | 0.372 | 0.323 | 0.259 | 0.237 | 0.223 | 0.212 | 0.196 |
| NCI-H596 | 0.745 | 0.698 | 0.735 | 0.688 | 1.05 | 0.839 | 0.689 | 0.481 | 0.897 | 0.974 | 0.966 | 0.707 | 0.683 | 0.636 | 0.606 | 0.583 | 0.743 | 0.82 | 0.608 | 0.564 |
| NCI-H2009 | 0.533 | 0.51 | 0.529 | 0.49 | 1.26 | 0.681 | 0.391 | 0.284 | 0.967 | 0.446 | 0.26 | 0.248 | 0.758 | 0.713 | 0.775 | 0.667 | 0.525 | 0.384 | 0.309 | 0.145 |
| NCI-H2228 | 0.414 | 0.338 | 0.357 | 0.257 | 0.93 | 0.774 | 0.51 | 0.144 | 0.587 | 0.272 | 0.195 | 0.171 | 0.649 | 0.591 | 0.458 | 0.476 | 0.363 | 0.256 | 0.129 | 0.107 |
| LK-2 | 0.623 | 0.275 | 0.513 | 0.39 | 0.803 | 0.493 | 0.169 | 0.168 | 0.255 | 0.218 | 0.241 | 0.251 | 0.264 | 0.454 | 0.419 | 0.304 | 0.516 | 0.156 | 0.136 | 0.175 |
| NCI-H460 | 0.524 | 0.512 | 0.541 | 0.466 | 1.23 | 0.987 | 0.0587 | 0.0315 | 0.729 | 0.786 | 0.0665 | 0.0361 | 0.832 | 0.734 | 0.969 | 0.601 | 0.517 | 0.508 | 0.0947 | 0.0363 |
| UMC-11 | 0.334 | 0.281 | 0.301 | 0.287 | 0.309 | 0.113 | 0.118 | 0.128 | 0.58 | 0.075 | 0.0835 | 0.132 | 0.388 | 0.403 | 0.392 | 0.3 | 0.308 | 0.184 | 0.178 | 0.171 |
| NCI-H1437 | 0.352 | 0.301 | 0.286 | 0.286 | 1.17 | 0.832 | 0.265 | 0.178 | 1.04 | 0.732 | 0.443 | 0.243 | – | 0.873 | 0.818 | 0.667 | 0.294 | 0.263 | 0.149 | 0.127 |
| HCC-366 | 0.599 | 0.661 | 0.601 | 0.567 | 1.1 | 0.842 | 0.191 | 0.0248 | 0.547 | 0.179 | 0.105 | 0.0338 | 0.41 | 0.363 | 0.369 | 0.222 | 0.609 | 0.657 | 0.0853 | 0.0845 |
| NCI-H2087 | 0.516 | 0.483 | 0.506 | 0.304 | 0.985 | 0.713 | 0.273 | 0.186 | 0.795 | 0.554 | 0.401 | 0.326 | 0.778 | 0.788 | 0.765 | 0.434 | 0.458 | 0.251 | 0.111 | 0.118 |
| LU99A | 0.942 | 0.794 | 0.886 | 0.841 | 0.766 | 0.243 | 0.142 | 0.151 | 0.492 | 0.28 | 0.185 | 0.168 | 0.505 | 0.507 | 0.49 | 0.468 | 0.804 | 0.441 | 0.17 | 0.199 |
